Data on 5 compounds can be found in article PMC7558535, “In Vitro Metabolism of DWP16001, a Novel Sodium-Glucose Cotransporter 2 Inhibitor, in Human and Animal Hepatocytes” (Pharmaceutics, 2020).

Where two headings read alike, the source gives them in different places.

In data set [1] the test system is SGLT2. Further details: method as in PMID 32183468. The settings on record: read-out: IC50 (SGLT2 inhibition); cited from earlier work.
The conditions of data set [2]: human, cited from earlier work.
For data set [3], the system named is human hepatocytes. The note with it: cited from earlier work.
The conditions of data set [4]: human; cited from earlier work.
The subject of data set [5] is 11 human CYP enzymes. The experiment in a line: CYP screening, whole panel. In kind it is in vitro ADME. The procedure:
DWP16001, M1, or M2 was incubated with 11 human cDNA-expressed CYP enzymes (1A1, 1A2, 2A6, 2B6, 2C8, 2C9, 2C19, 2D6, 2E1, 3A4, and 3A5) to identify the CYP enzymes involved in the metabolism of DWP16001. Reaction mixtures of 95 µL containing DWP16001 (final concentration: 5 µM), M1 or M2 (final concentration: 10 µM), and CYPs (final amount: 10 pmol) were prepared in 0.1 M potassium phosphate buffer (pH 7.4). The reaction was started by adding 5 µL of NADPH-generating system; the mixtures were incubated for 30 min at 37 °C in triplicate. Reactions were stopped by the addition of 400 µL of ice-cold ketoconazole (internal standard, 200 ng/mL) in ice-cold acetonitrile. Samples were centrifuged at 15,000× g for 8 min at 4 °C. Seventy-five microliter aliquots of the supernatants were diluted with 75 µL of deionized water and analyzed using an LC–MS/MS system.

For data set [6] the following is noted: cited from earlier work.
Data set [7] deals with 13 human UGT enzymes. In words: UGT screening, whole panel. The data set is classed as in vitro ADME. The settings on record: incubation of M1 with 13 human UGT enzymes and UDPGA. The procedure:
To screen for UGT enzymes responsible for glucuronidation of DWP16001, 100 μL of reaction mixtures containing 13 human cDNA-expressed UGT enzymes (1A1, 1A3, 1A4, 1A6, 1A7, 1A8, 1A9, 1A10, 2B4, 2B7, 2B10, 2B15, and 2B17) at 0.1 mg protein/mL, 5 mM UDPGA, 0.025 mg/mL alamethicin, and 25 μM DWP16001 or M1 in 50 mM Tris buffer (pH 7.4) were incubated at 37 °C for 30 min in triplicate. Reactions were stopped by adding 100 μL of ketoconazole (internal standard, 200 ng/mL) in acetonitrile, followed by vortex-mixing and centrifugation (15,000× g, 8 min, 4 °C). The supernatant (75 μL) was diluted with equal volume of 30% acetonitrile and aliquots (5 μL) were injected into an LC-MS/MS system.

Regarding `OC[C@H]1O[C@@H](c2ccc(F)c(Cc3cc4ccccc4s3)c2)[C@H](O)[C@@H](O)[C@@H]1O` [ipragliflozin], the IC50 in data set [1] is 8.9 ± 1.7 nM.
In the case of `CCOc1ccc(Cc2cc([C@@H]3O[C@H](CO)[C@@H](O)[C@H](O)[C@H]3O)ccc2Cl)cc1` [dapagliflozin], in data set [2] (pretreatment with mefenamic acid 250 mg every 6 h for 5 days), the “Increase of AUC” value is reported as 50%. Besides, in data set [2] (repeated rifampin 600 mg/day for 6 days), the “Decrease of AUC” value is recorded as 22%. Moreover, the Hepatic extraction entry in data set [3] is “low”. Also, the “Share of oxidative metabolism (CYP2D6, CYP3A4, CYP2C9 etc.) in metabolism” value in data set [4] was “less than 10%”.
As to `OC[C@H]1O[C@@H](c2cc(Cc3ccc(C4(O)CC4)cc3)c(Cl)c3c2CCO3)[C@H](O)[C@@H](O)[C@@H]1O` [M2, (2S,3R,4R,5S,6R)-2-(7-chloro-6-(4-(1-hydroxycyclopropyl)benzyl)-2,3-dihydrobenzofuran-4-yl)-6-(hydroxymethyl)tetrahydro-2H-pyran-3,4,5-triol], in data set [5] (incubation of M2 with 11 human CYP enzymes and NADPH), the “Formation of M5 from M2” value was “not detected”.
With `Cc1ccc([C@@H]2O[C@H](CO)[C@@H](O)[C@H](O)[C@H]2O)cc1Cc1ccc(-c2ccc(F)cc2)s1` [canagliflozin], in data set [6] (glyburide, metformin, and simvastatin), the “Drug interaction on co-administration” value is “did not cause significant drug interactions”. The “Increase of AUC” value in data set [6] (human, cyclosporine A 400 mg) is on record as 23%; in data set [6] (human, probenecid 500 mg twice per day for 3 days), 20.7%. Besides, the “Decrease of AUC” value in data set [6] (human, repeated rifampin 600 mg/day for 8 days) is 48.7%.
In the case of `OC[C@H]1O[C@@H](c2cc(Cc3ccc(C4CC4)cc3)c(Cl)c3c2CC(O)O3)[C@H](O)[C@@H](O)[C@@H]1O` (stereo partly drawn) [M1, (2S,3R,4R,5S,6R)-2-(7-chloro-6-(4-cyclopropylbenzyl)-2-hydroxy-2,3-dihydrobenzofuran-4-yl)-6-(hydroxymethyl)tetrahydro-2H-pyran-3,4,5-triol], in data set [5] (incubation of M1 with 11 human CYP enzymes and NADPH), the “Formation of M4 from M1” value is given as “not detected”. The “Formation of M1 glucuronides U4 and U5 from M1” value in data set [7] is “not formed”.
